# Patent US20250179059A1 (The Regents of the University of California, priority 2021, published 2025)
# Where a name gives a salt, the structure may show the parent alone.
# Target: T1, human BRD4 bromodomain II (Homo sapiens, UniProt O60885)
# T1 construct: human BRD4 bromodomain II [based on Genbank NM_058243, residues 349-460]; host or cells: E. coli
# Assay: Bromodomain binding assay (AlphaScreen), BRD4 BDII
# Details: AlphaScreen assay, Table C2; read-out: BRD4 BDII IC50
# Procedure: Bromodomain Binding Assay
# The bromodomain binding assay utilizes AlphaScreen technology. Compounds compete with a biotinylated peptide ligand (from histone H4: aa 1-21, K5/K8/K12/K16Ac-biotin) for binding to a hexahistidine (His6)-tagged bromodomain. Peptide binding is detected by fluorescence signal after singlet oxygen energy transfer from peptide-bound AlphaScreen streptavidin-coated donor beads to His6-tagged bromodomain-bound nickel-chelate acceptor beads (PerkinElmer). Briefly, 8 μL 2.5× bromodomain (E. coli expressed, N-terminal His6-tagged human BRD4 bromodomain II [based on Genbank NM_058243, residues 349-460] or N-terminal His6-tagged human BRD4 bromodomain I [residues 44-170]) in reaction buffer (50 mM HEPES [pH 7.5], 100 mM NaCl, 0.05% CHAPS, 0.1% BSA, 1% DMSO) is added to wells of an assay plate (384-well low flange white, flat bottom, polystyrene microplate, Corning #3572; buffer only is added to some wells as a negative control). A compound concentration series (10 concentrations, 3-fold serial dilutions previously prepared in 100% DMSO, or 100% DMSO only negative control) is delivered to the assay plate with an Echo 550 acoustic liquid handler (Labcyte), followed by plate centrifugation and incubation for 30 minutes at room temperature. Then 4 μL 5× biotinylated peptide ligand is added, followed by plate centrifugation and gentle shaking for 30 minutes at room temperature to mix. After this incubation, 4 μL 5× donor beads are added, and the plate is centrifuged, followed by brief gentle shaking to mix. Finally, 4 μL 5× acceptor beads are added, and the plate is centrifuged, followed by gentle shaking for 60 minutes at room temperature in the dark. AlphaScreen signal (excitation/emission: 680 nm/520-620 nm) is detected with an EnSpire multimode plate reader (PerkinElmer). Percentage peptide binding is plotted as a function of concentration, and curve fitting is used to determine competitive compound binding ICsos.
row,IC50 [nM],Compound
1,> 100,COc1c(-c2ccc(NC(C)=O)cc2)cccc1-c1cc(N2CCN(C)CC2)no1 [Example 7]
2,> 100,"CC(=O)Nc1ccc(-c2cccc(-c3cc(N4CCNCC4)sn3)c2O)cc1 [Example 8, N-(2′-Hydroxy-3′-(5-(piperazin-1-yl)isothiazol-3-yl)-[1,1′-biphenyl]-4-yl)acetamide]"
3,> 100,"CC(=O)N(C)c1ccc(-c2cccc(-c3cc(N4CCNCC4)no3)c2O)cc1 [Example 9, N-(2′-Hydroxy-3′-(3-(piperazin-1-yl)isoxazol-5-yl)-[1,1′-biphenyl]-4-yl)-N-methylacetamide]"
4,> 100,"CC(=O)Nc1ccc(-c2cccc(-c3ccc(NC(C)=O)cc3)c2O)cc1 [Example 11, N,N′-(2′-hydroxy-[1,1′:3′,1″-terphenyl]-4,4″-diyl)diacetamide]"
5,> 100,"CC(=O)Nc1ccc(-c2cccc(-c3ccccc3)c2O)cc1 [Example 12, N-(2′-Hydroxy-[1,1′:3′,1″-terphenyl]-4-yl)acetamide]"
6,> 100,"CC(=O)Nc1ccc(-c2cccc(-c3cnn(C)c3)c2O)cc1 [Example 13, N-(2′-Hydroxy-3′-(1-methyl-1H-pyrazol-4-yl)-[1,1′-biphenyl]-4-yl)acetamide]"
7,> 100,"CC(=O)Nc1ccc(-c2cccc(-c3cnn(-c4ccccc4)c3)c2O)cc1 [Example 14, N-(2′-Hydroxy-3′-(1-phenyl-1H-pyrazol-4-yl)-[1,1′-biphenyl]-4-yl)acetamide]"
8,> 100,"CC(=O)Nc1ccc(-c2cccc(-c3cnn(C4CCNCC4)c3)c2O)cc1 [Example 15, N-(2′-Hydroxy-3′-(1-(piperidin-4-yl)-1H-pyrazol-4-yl)-[1,1′-biphenyl]-4-yl)acetamide]"
9,> 100,"CC(=O)Nc1ccc(-c2cccc(-c3cnn(-c4ccc(F)cc4)c3)c2O)cc1 [Example 16, N-(3′-(1-(4-Fluorophenyl)-1H-pyrazol-4-yl)-2′-hydroxy-[1,1′-biphenyl]-4-yl)acetamide]"
10,> 100,"CC(=O)Nc1ccc(-c2cccc(-c3cnn(C4CCN(C)CC4)c3)c2O)cc1 [Example 17, N-(2′-Hydroxy-3′-(1-(1-methylpiperidin-4-yl)-1H-pyrazol-4-yl)-[1,1′-biphenyl]-4-yl)acetamide]"
11,> 100,"CC(=O)Nc1ccc(-c2cccc(-n3cnc(-c4ccc(F)cc4)c3)c2O)cc1 [Example 18, N-(3′-(4-(4-Fluorophenyl)-1H-imidazol-1-yl)-2′-hydroxy-[1,1′-biphenyl]-4-yl)acetamide]"
12,> 100,"CCOc1cc(-c2cccc(-c3cc(N4CCNCC4)no3)c2O)ccc1NC(C)=O [Example 19, N-(3-Ethoxy-2′-hydroxy-3′-(3-(piperazin-1-yl)isoxazol-5-yl)-[1,1′-biphenyl]-4-yl)acetamide 2,2,2-trifluoroacetate]"
13,10 to 100,"CC(=O)Nc1ccc(-c2cccc(-c3cc(N4CCNCC4)no3)c2O)cc1OC(C)C [Example 20, N-(2′-Hydroxy-3-isopropoxy-3′-(3-(piperazin-1-yl)isoxazol-5-yl)-[1,1′-biphenyl]-4-yl)acetamide]"
14,> 100,"CC(=O)Nc1ccc(-c2cccc(-c3cc(N4CCNCC4)no3)c2O)cc1C [Example 21, N-(2′-Hydroxy-3-methyl-3′-(3-(piperazin-1-yl)isoxazol-5-yl)-[1,1′-biphenyl]-4-yl)acetamide hydrochloride]"
15,> 100,"CCc1cc(-c2cccc(-c3cc(N4CCNCC4)no3)c2O)ccc1NC(C)=O [Example 22, N-(3-Ethyl-2′-hydroxy-3′-(3-(piperazin-1-yl)isoxazol-5-yl)-[1,1′-biphenyl]-4-yl)acetamide 2,2,2-trifluoroacetate]"
16,> 100,"COc1cc(-c2cccc(-c3cc(N4CCNCC4)no3)c2O)ccc1NC(C)=O [Example 23, N-(2′-Hydroxy-3-methoxy-3′-(3-(piperazin-1-yl)isoxazol-5-yl)-[1,1′-biphenyl]-4-yl)acetamide 2,2,2-trifluoroacetate]"

row,IC50 [nM],Compound
1,> 100,"CC(=O)Nc1ccc(-c2cccc(-c3cc(N4CCNCC4)no3)c2O)cc1OC(F)(F)F [Example 25, N-(2′-hydroxy-3′-(3-(piperazin-1-yl)isoxazol-5-yl)-3-(trifluoromethoxy)-[1,1′-biphenyl]-4-yl)acetamide]"
2,> 100,"CC(=O)Nc1ccc(-c2cccc(-c3cc(N4CCNCC4)no3)c2O)cc1OC(F)F [Example 26, N-(3-(Difluoromethoxy)-2′-hydroxy-3′-(3-(piperazin-1-yl)isoxazol-5-yl)-[1,1′-biphenyl]-4-yl)acetamide 2,2,2-trifluoroacetate]"
3,> 100,"CC(=O)Nc1ccc(-c2cccc(-c3cc(N4CCNCC4)no3)c2O)cc1C(C)C [Example 27, N-(2′-Hydroxy-3-isopropyl-3′-(3-(piperazin-1-yl)isoxazol-5-yl)-[1,1′-biphenyl]-4-yl)acetamide 2,2,2-trifluoroacetate]"
4,10 to 100,"CC(=O)Nc1ccc(-c2cccc(-c3cc(N4CCNCC4)no3)c2O)cc1OC1CC2(COC2)C1 [Example 28, N-(3-(2-Oxaspiro[3.3]heptan-6-yloxy)-2′-hydroxy-3′-(3-(piperazin-1-yl)isoxazol-5-yl)-[1,1′-biphenyl]-4-yl)acetamide 2,2,2-trifluoroacetate]"
5,> 100,"CC(=O)N1CCC(=O)Nc2cc(-c3cccc(-c4cc(N5CCNCC5)no4)c3O)ccc21 [Example 29, 5-Acetyl-8-(2-hydroxy-3-(3-(piperazin-1-yl)isoxazol-5-yl)phenyl)-4,5-dihydro-1H-benzo[b][1,4]diazepin-2(3H)-one 2,2,2-trifluoroacetate]"
6,> 100,"CC(=O)Nc1ccc(-c2cccc(-c3cc(N4CCNCC4)no3)c2O)c(F)c1 [Example 30, N-(2-Fluoro-2′-hydroxy-3′-(3-(piperazin-1-yl)isoxazol-5-yl)-[1,1′-biphenyl]-4-yl)acetamide 2,2,2-trifluoroacetate]"
7,> 100,"CC(=O)N1CCc2cc(-c3cccc(-c4cc(N5CCNCC5)no4)c3O)ccc21 [Example 31, 1-(5-(2-Hydroxy-3-(3-(piperazin-1-yl)isoxazol-5-yl)phenyl)indolin-1-yl)ethanone 2,2,2-trifluoroacetate]"
8,10 to 100,"CC(=O)Nc1ccc(-c2cccc(-c3cc(N4CCNCC4)no3)c2O)cc1Cl [Example 32, N-(3-Chloro-2′-hydroxy-3′-(3-(piperazin-1-yl)isoxazol-5-yl)-[1,1'-biphenyl]-4-yl)acetamide 2,2,2-trifluoroacetate]"
9,> 100,"CC(=O)Nc1ccc(-c2cccc(-c3ccc(NC(C)=O)c(F)c3)c2O)cc1F [Example 33, N,N′-(3,3″-Difluoro-2′-hydroxy-[1,1′:3′,1″-terphenyl]-4,4″-diyl)diacetamide]"
10,10 to 100,"CC(=O)Nc1ccc(-c2cccc(-c3cc(N4CCNCC4)no3)c2O)cc1F [Example 34, N-(3-Fluoro-2′-hydroxy-3′-(3-(piperazin-1-yl)isoxazol-5-yl)-[1,1′-biphenyl]-4-yl)acetamide trifluoroacetate]"
11,> 100,"CC(=O)Nc1ccc(-c2cccc(-c3cnn(-c4ccccc4)c3)c2O)cc1F [Example 35, N-(3-Fluoro-2′-hydroxy-3′-(1-phenyl-1H-pyrazol-4-yl)-[1,1′-biphenyl]-4-yl) acetamide]"
12,> 100,"CC(=O)N1CCCc2cc(-c3cccc(-c4cc(N5CCNCC5)no4)c3O)ccc21 [Example 36, 1-(6-(2-Hydroxy-3-(3-(piperazin-1-yl)isoxazol-5-yl)phenyl)-3,4-dihydroquinolin-1(2H)-yl)ethanone 2,2,2-trifluoroacetate]"
13,> 100,"O=C1OCCN1c1ccc(-c2cccc(-c3cc(N4CCNCC4)no3)c2O)cc1 [Example 37, 3-(2′-Hydroxy-3′-(3-(piperazin-1-yl)isoxazol-5-yl)-[1,1′-biphenyl]-4-yl)oxazolidin-2-one 2,2,2-trifluoroacetate]"
14,> 100,"CC(=O)N1CCC(=O)N(C)c2cc(-c3cccc(-c4cc(N5CCNCC5)no4)c3O)ccc21 [Example 38, 5-Acetyl-8-(2-hydroxy-3-(3-(piperazin-1-yl)isoxazol-5-yl)phenyl)-1-methyl-1,3,4,5-tetrahydro-2H-benzo[b][1,4]diazepin-2-one]"
15,> 100,"O=C(Nc1ccc(-c2cccc(-c3cc(N4CCNCC4)no3)c2O)cc1)C(F)(F)F [Example 39, 2,2,2-Trifluoro-N-(2′-hydroxy-3′-(3-(piperazin-1-yl)isoxazol-5-yl)-[1,1′-biphenyl]-4-yl)acetamide 2,2,2-trifluoroacetate]"
16,> 100,"CC(=O)Nc1ccc(-c2cccc(-c3ccc(NC(C)=O)nc3)c2O)cn1 [Example 40, N,N′-(5,5′-(2-Hydroxy-1,3-phenylene)bis(pyridine-5,2-diyl))diacetamide]"

row,Compound,IC50 [nM]
1,"CC(=O)Nc1ccc(-c2cccc(-c3cc(N4CCNCC4)no3)c2O)cc1OC1CCC1 [Example 24, N-(3-cyclobutoxy-2′-hydroxy-3′-(3-(piperazin-1-yl)isoxazol-5-yl)-[1,1′-biphenyl]-4-yl)acetamide 2,2,2-trifluoroacetate]",10 to 100
